Measurements reported in patent US3937809A, “Addition compound of a nucleotide and an amino acid and the use thereof in protection against actinic radiation” (priority 1974, dated 1976).
Values after ≈ are worked out from the molar mass of the structure shown.

Assays:
[1] = UV absorption in % at 300, 280 and 240 nm (Table 2); assay type: physicochemical
Text: The following Table illustrates the ultraviolet absorption characteristics at wave lengths of 300 nm, 280 nm, and 240 nm for the compounds of the invention, as well as other known compounds which have been used in the past as sun protective agents.

pH of solution (Table I) = assay type: physicochemical; conditions: c=0.005
Text: The following Table 1 lists additional compounds of the invention along with their physical properties.
Molecular Brutto N(%) pH UV- Extinction coefficients

[2] = UV spectrum and extinction coefficients in water (Table I); assay type: physicochemical
[3] = Solubility in water at 20°C (Table 3); assay type: physicochemical
[4] = background statement; cited from earlier work

| UV Absorption in %, 240 nm [1] [%] | UV Absorption in %, 280 nm [1] [%] | UV Absorption in %, 300 nm [1] [%] | Molecule | also measured |
| --- | --- | --- | --- | --- |
| 98.5 | 99 | 99 | Nc1ccc(C(=O)O)c(O)c1 [4-Aminosalicylic acid] | – |
| 90 | 45 | 42 | O=c1cc[nH]c(=O)[nH]1 [Uracil] | solubility [3]: 2000 µg/mL (≈ 17.8 mM) |
| 100 | 98 | 95 | Nc1cc[nH]c(=O)n1 [Cytosine] | solubility [3]: 4000 µg/mL (≈ 36 mM) |
| 100 | 52 | 14 | Nc1ncnc2nc[nH]c12 [Adenine] | solubility [3]: 840 µg/mL (≈ 6.22 mM) |
| 86 | 88 | 3 | Nc1ccn([C@@H]2O[C@H](COP(=O)(O)O)[C@@H](O)[C@H]2O)c(=O)n1 [Cytidine-5'-monophosphoric acid-Na2] | – |
| 87 | 0 | 26 | Nc1cc(C(=O)O)c(O)c(S(=O)(=O)O)c1 [5-Amino-3-sulfosalicylic acid-Na2] | – |
| 80 | 8 | 6 | Nc1ncnc2c1ncn2[C@@H]1O[C@H](COP(=O)(O)O)[C@@H](O)[C@H]1O [Adenosine-5'-monophosphoric acid-Na2] | – |
| 91 | 100 | 100 | Nc1ccc(C(=O)O)cc1 [p-Aminobenzoic acid] | ultraviolet absorption of known agents (in words) [4]: insufficient absorption in the ultraviolet portion of the spectrum |

Further lines, the molecule ahead of its results:

| Molecule | UV Absorption in %, 240 nm [1] [%] | UV Absorption in %, 280 nm [1] [%] | UV Absorption in %, 300 nm [1] [%] | also measured |
| --- | --- | --- | --- | --- |
| Nc1ccccc1C(=O)O [Anthranilic acid(o-Aminobenzoic acid), o-Aminobenzoic acid] | 99 | 48 | 84 | – |
| Adenosine-5'-mono-phosphoric acid-(Na-tryptophane)2 [No. 5] | – | – | – | pH (pH of solution (Table I)): 7.0; UV-spectrum λmax [2]: 220 mμ; mol.Ext.coeff. ε ([2]; c=0.005, d-l): 320000±4%; Extinction coefficients E250/E260 ([2]; c=0.005, d-l, ratio): 0.76; Extinction coefficients E280/E260 ([2]; c=0.005, d-l, ratio): 0.67; Extinction coefficients E290/E260 ([2]; c=0.005, d-l, ratio): 0.33 |
| O=c1[nH]cnc2nc[nH]c12 [Hypoxanthine] | 100 | 65 | 6 | – |
| Nc1nc2nc[nH]c2c(=O)[nH]1 [Guanine] | 73 | 62 | 11 | – |
| Cytidine-5'-monophosphoric acid-(o-aminobenzoic acid)2 Na2 | 98 | 79 | 55.5 | – |
| O=C(O)c1ccccc1O [Salicylic acid] | 98 | 74 | 94 | – |
| O=c1ccn([C@@H]2O[C@H](COP(=O)(O)O)[C@@H](O)[C@H]2O)c(=O)[nH]1 [Uridine-5'-monophosphoric acid-Na2] | 70 | 55 | 0 | – |
